Measured values reported in US7491849B2, “Oligoamine compounds and derivatives thereof for cancer therapy” (priority 2001, dated 2009).

Legend:
[1] = tested on: DU-145 human prostate tumor xenografts; assay: Subcutaneous DU-145 prostate tumor xenograft in mice; assay type: in vivo, male NCr-nu mice; details: for Days Delay (T-C) / Non-Specific Deaths/Total / Tumor Free Survival/Total / Tumor Regression, Number of Complete / Tumor Regression, Number of Partial / Days to 4 Doublings / % T/C, Day 21 (median tumor weight) / % T/C, Day 35 (median tumor weight) / median tumor growth delay [(T-C)/C x 100] / tolerability / deaths: 6.25 mg/kg IV; for Days Delay (T-C) / Non-Specific Deaths/Total / Tumor Free Survival/Total / Tumor Regression, Number of Complete / Tumor Regression, Number of Partial / Days to 4 Doublings / % T/C, Day 21 (median tumor weight) / % T/C, Day 35 (median tumor weight): Q1D x 5 day 14, 28; for Days to 4 Doublings: control 17.1; for % T/C, Day 21 (median tumor weight): three days after first round; for % T/C, Day 35 (median tumor weight): three days after second round; for median tumor growth delay [(T-C)/C x 100]: two rounds, statistically significant; for antitumor activity (summary): at a dosage which was well tolerated (6.25 mg/kg IV)
Method: Response of implanted sc DU-145 prostate tumors to treatment with SL-11159 and SL-11226. This experiment evaluates the antitumor efficacy of SLIL Biomedical Corporation compounds (SL-11159, SL-11226) against subcutaneously-implanted DU-145 human prostate tumor xenografts in male NCr-nu (line 3A10F17T1) mice. All compounds were tested at a single dose level when administered intravenously (iv), at 6.25 mg/kg. Both SL-11159 and SL-11226 were prepared in water for injection (soluble); the injection volume was 0.1 mL/10 g body weight.
All compounds were administered for two rounds of five daily treatments with a nine-day rest period between the rounds. The control group was treated with vehicle (water for injection) for two rounds on a Q1D×5 schedule. There were sixteen mice in the control group and eight mice in each of the treatment groups. All treatments were initiated on day 14 postimplant when all mice had established tumors ranging in size from 75 to 198 mg. The experiment was terminated on day 53 after tumor implantation. The individual animal's time to reach the evaluation size (time to reach four doublings) was used in the calculations of the median tumor growth delay [(T−C)/C×100, %] and as the endpoint in a life tables analysis (stratified Kaplan-Meier estimation followed by the Mantel-Haenszel log-rank test) in order to statistically compare the growth data between groups (see Table 5; group 1 is the control group, group 2 was treated with SL-11159, group 3 was treated with SL-11226).
The time required for a tumor to double in mass is calculated based on the initial tumor weight at the beginning of the treatment period. When the initial tumor weight has been selected, tumor weights are then examined, beginning with the last recorded value, until a doubling is calculated. Examination from the last recorded value is to ensure that the doubling time is calculated during the final phase of tumor growth and not prior to a tumor regression. Values between measurements are calculated by exponential […], and a value may be estimated after the final measured weight provided the extrapolated value occurs prior to the animal's death.)
Control tumors grew well in fourteen out of sixteen mice. There was one xenograft failure (no-take). One animal died during the second round of the vehicle treatment, on day 29, with a tumor weight of 770 mg. Tumors reached the evaluation size of four mass doublings in 17.1 days, which covers the period of the first round of treatment and three days of the second round of treatment. The effect of each round of treatment was evaluated by the comparison of the median tumor weight of the treated groups on days 21 or 35 (three days after the end of the first or the second round of treatment, respectively) to the median tumor weight of the control group on the same day (T/C×100%, see Table 4A).
Tumor regression was scored (excluding nonspecific deaths), according to the smallest tumor size attained after the beginning of treatment relative to the size at first treatment: • partial: <50 percent of its size at 1 st rx, but not complete. • complete: tumor becomes unpalpable.
Duration of regression: the interval during which a tumor classified as a partial or complete regressor was below 50 percent of its size at first treatment.
Evaluation size: this value is the tumor mass selected at four mass doublings beginning with the initial tumor size at the start of treatment.
T−C (days): the difference in the median of times postimplant for tumors of the treated groups to attain an evaluation size compared to the median of the control group.

[2] = tested on: PC-3 Cells; assay: Colony forming assay (CFE), PC-3 cells; assay type: cell-based; details: ca. 1.5-2 μM, 5 days incubation, FIG. 2
Method: Assessment of Oligoamine Cytotoxicity by Colony Forming Assay. The cytotoxicity of the oligoamines was further assayed by the colony forming assay (CFE). Four saturated oligoamines were chosen for their ability to kill DuPro cells after 5 days of incubation. Oligoamines SL-11159, SL-11175 and SL-11226 had over 4 logs of cell kill on day 5 of treatment at 1-2 μM concentrations; see FIG. 1. […] The colony forming assay was performed as follows.
Colony Forming Efficiency Assay. All cell lines used in this assay have already been optimized with respect to the number of feeder cells and length of incubation time for observable colony formation. Cells were washed, harvested, and replated in quadruplicate at appropriate dilution into 60 mm plastic Petri dishes. The Petri dishes were prepared not more than 24 hr in advance with 4 ml of supplemented Eagle's minimum essential medium containing 5-10% fetal bovine serum (standardized for each cell line) for all cell lines. Cells were incubated for the previously standardized number of days in a 95% air/5% CO2 atmosphere. The plates were stained with 0.125% crystal violet in methanol and counted. Results are expressed as the surviving fraction of an appropriate control.

[3] = tested on: DuPro Cells; assay: Cellular polyamine and oligoamine levels, DuPro cells (HPLC); assay type: cell-based
Method: Cellular Uptake of Oligoamines. There was considerable uptake of oligoamines by the cancer cell lines; see Table 3A (DuPro cells) and Table 3B (PC-3 cells). […] While not wishing to be limited by any particular theory of operation, the cytotoxicity is likely related to their strong aggregation effect on DNA.
Polyamine Analysis. An appropriate number of cells were taken from harvested samples and centrifuged at 1000 rpm at 4° C. for 5 min. The cells were washed twice with chilled Dulbecco's isotonic phosphate buffer (pH 7.4) by centrifugation at 1000 rpm at 4° C. and resuspended in the same buffer. After the final centrifugation, the supernatant was decanted, and […] of 8% sulfosalycilic acid was added to the cell pellet. The cells were sonicated, and the mixture was kept at 4° C. for at least 1 h. After centrifugation at 8000 g for 5 min, the supernatant was removed for analysis. An appropriate volume (50-100 μl) was fluorescence-labeled by derivatizing with dansyl chloride. Labeled polyamines were loaded onto a C-18 high-performance liquid chromatography column and separated by gradient elution with acetonitrile/water at 50° C. Peaks were detected and quantitated using Shimadzu HPLC fluorescence monitor coupled with a Spectra-Physics peak integrator. Because polyamine levels vary with environmental conditions, control cultures were sampled for each experiment.

[4] = Day 4 of Treatment, analog conc. 0.8 μM
[5] = Day 4 of Treatment, analog conc. 1.6 μM
[6] = Day 6 of Treatment, analog conc. 0.8 μM

Structure (SMILES)	Days Delay (T-C) [1] [days]	Non-Specific Deaths/Total [1]	Tumor Free Survival/Total [1]	Tumor Regression, Number of Complete [1]	Tumor Regression, Number of Partial [1]	Days to 4 Doublings [1] [days]	% T/C, Day 21 (median tumor weight) [1] [%]	% T/C, Day 35 (median tumor weight) [1] [%]	median tumor growth delay [(T-C)/C x 100] [1] [%]	antitumor activity (summary) [1]	Polyamine levels, Analog (cellular oligoamine level) [3, 4] [nmoles/10^6 cells]	Polyamine levels, Put [3, 4] [nmoles/10^6 cells]	further results
CCNCCCCNCCCCNCCCCNCCCCNCCCCNCCCCNCCCCNCCCCNCCCCNCC.Cl.Cl.Cl.Cl.Cl.Cl.Cl.Cl.Cl.Cl [SL-11159]	>6.9	1/8	0/8	0	0	>24.0	65	63	> 40	measurable antitumor activity	0.525	0.560	tolerability / deaths ([1]; first round of treatment): well tolerated without deaths; tolerability / deaths ([1]; second round of treatment): death of one animal; logs of cells killed (colony survival) [2]: four; Polyamine levels, Analog (cellular oligoamine level) [3, 5]: 0.513 nmoles/10^6 cells; Polyamine levels, Put [3, 5]: 0.137 nmoles/10^6 cells
CCNCCCCNCCCCNCCCCNCCCCNCCCCNCCCCNCCCCNCCCCNCCCCNCCCCNCCCCNCC.Cl.Cl.Cl.Cl.Cl.Cl.Cl.Cl.Cl.Cl.Cl.Cl [SL-11226]	>6.4	0/8	0/8	0	0	>23.5	46	61	> 37	measurable antitumor activity	0.032	0.593	tolerability / deaths ([1]; whole treatment (two rounds)): well tolerated without deaths; Polyamine levels, Spd [3, 4]: 0.017 nmoles/10^6 cells; Polyamine levels, Spm [3, 4]: 0.067 nmoles/10^6 cells; Polyamine levels, Analog (cellular oligoamine level) [3, 6]: 0.022 nmoles/10^6 cells; Polyamine levels, Put [3, 6]: 0.548 nmoles/10^6 cells
